The values below come from US11541028B2, “Peptide pharmaceuticals for treatment of NASH and other disorders” (Mederis Diabetes LLC, priority 2018, dated 2023).

The subject of the assay is db/db mice. Briefly: Glucose-lowering activity in db/db mice. Particulars: for time for which elevated blood glucose level was reduced to the normal range: 250 nmol/kg subcutaneously at t=0 and 7 hr (FIG. 9). The class given is in vivo. On the procedure: The 60 female db/db B6BKS (D) Leprdb/J (strain 000697) mice for this study were about 8-9 weeks old at arrival (Jackson Laboratory, Bar Harbor, Me.). […] One group of 8 female mice served as the vehicle control and received the vehicle, 0.2% BSA in saline, pH 7.4. One additional group of 8 female mice received the positive-control compound, liraglutide, at a dose level of 50 nmoles/kg. The test compounds, vehicle and positive-control compound were subcutaneously injected at a dose volume of 6 mL/kg on day 1 at about 0, 7 and 24 hours.
Clinical observations were conducted at receipt, prior to randomization, and daily from days 1 to 5. Body weights were measured and recorded at receipt, prior to randomization, and daily from days 1 to 5. Food consumption was measured and recorded daily from days 1 to 5. Blood samples for glucose analysis were collected pre-study (day −3) and at 0, 1, 2, 4, 8, 10, 24, 48, 72 and 96 hours following the first dose on day 1. At study termination all animals were euthanized, and the carcasses were discarded without further evaluation.

`CCCCCCCCO[C@@H]1O[C@H](C(=O)NCCCC[C@H](NC(=O)[C@@H](NC(=O)[C@H](Cc2ccccc2)NC(=O)[C@H](CCC(=O)O)NC(=O)[C@@H]2CCCCNC(=O)CC[C@H](NC(=O)[C@H](CC(=O)O)NC(=O)[C@H](CC(C)C)NC(=O)[C@H](Cc3ccc(O)cc3)NC(=O)[C@H](CCCCN)NC(=O)[C@H](CO)NC(=O)[C@H](Cc3ccc(O)cc3)NC(=O)[C@H](CC(=O)O)NC(=O)[C@H](CO)NC(=O)[C@@H](NC(=O)[C@H](Cc3ccccc3)NC(=O)[C@@H](NC(=O)CNC(=O)[C@H](CCC(N)=O)NC(=O)C(C)(C)NC(=O)[C@@H](N)Cc3c[nH]cn3)[C@@H](C)O)[C@@H](C)O)C(=O)N[C@@H](CCC(N)=O)C(=O)N[C@@H](C)C(=O)N[C@@H](C)C(=O)N2)[C@@H](C)CC)C(=O)N[C@@H](Cc2c[nH]c3ccccc23)C(=O)N[C@@H](CC(C)C)C(=O)N[C@@H](CC(C)C)C(=O)N[C@@H](CCC(N)=O)C(=O)N[C@H](C(N)=O)[C@@H](C)O)[C@@H](O)[C@H](O)[C@H]1O` [EU-A992]: the “time for which elevated blood glucose level was reduced to the normal range” value (db/db mice) is reported as “around 72 hr”. Further, where the note is “dose 250 nmole/kg sc”, the “db/db Mice-Mean Blood Glucose (mg/dL) 0 hr” value turned out to be 405 mg/dL, the “db/db Mice-Mean Blood Glucose (mg/dL) 10 hr” value stood at 104 mg/dL, the “db/db Mice-Mean Blood Glucose (mg/dL) 24 hr” value is reported as 112 mg/dL and the “db/db Mice-Mean Blood Glucose (mg/dL) 48 hr” value was 130 mg/dL.
In the case of `CCCCCCCCCCCCO[C@@H]1O[C@H](C(=O)NCCCC[C@H](NC(=O)[C@@H](NC(=O)[C@H](Cc2ccccc2)NC(=O)[C@H](CCC(=O)O)NC(=O)[C@@H]2CCCCNC(=O)CC[C@H](NC(=O)[C@H](CC(=O)O)NC(=O)[C@H](CC(C)C)NC(=O)[C@H](Cc3ccc(O)cc3)NC(=O)[C@H](CCCCN)NC(=O)[C@H](CO)NC(=O)[C@H](Cc3ccc(O)cc3)NC(=O)[C@H](CC(=O)O)NC(=O)[C@H](CO)NC(=O)[C@@H](NC(=O)[C@H](Cc3ccccc3)NC(=O)[C@@H](NC(=O)CNC(=O)[C@H](CCC(N)=O)NC(=O)C(C)(C)NC(=O)[C@@H](N)Cc3c[nH]cn3)[C@@H](C)O)[C@@H](C)O)C(=O)N[C@@H](CCC(N)=O)C(=O)N[C@@H](C)C(=O)N[C@@H](C)C(=O)N2)[C@@H](C)CC)C(=O)N[C@@H](Cc2c[nH]c3ccccc23)C(=O)N[C@@H](CC(C)C)C(=O)N[C@@H](CC(C)C)C(=O)N[C@@H](CCC(N)=O)C(=O)N[C@H](C(N)=O)[C@@H](C)O)[C@@H](O)[C@H](O)[C@H]1O` [EU-A993], for the setting “dose 250 nmole/kg sc”, the “db/db Mice-Mean Blood Glucose (mg/dL) 0 hr” value is recorded as 503 mg/dL, the “db/db Mice-Mean Blood Glucose (mg/dL) 10 hr” value is 305 mg/dL, the “db/db Mice-Mean Blood Glucose (mg/dL) 24 hr” value was 324 mg/dL and the “db/db Mice-Mean Blood Glucose (mg/dL) 48 hr” value stood at 426 mg/dL.
For `CCCCCCCCCCCCCCO[C@@H]1O[C@H](C(=O)NCCCC[C@H](NC(=O)[C@@H](NC(=O)[C@H](Cc2ccccc2)NC(=O)[C@H](CCC(=O)O)NC(=O)[C@@H]2CCCCNC(=O)CC[C@H](NC(=O)[C@H](CC(=O)O)NC(=O)[C@H](CC(C)C)NC(=O)[C@H](Cc3ccc(O)cc3)NC(=O)[C@H](CCCCN)NC(=O)[C@H](CO)NC(=O)[C@H](Cc3ccc(O)cc3)NC(=O)[C@H](CC(=O)O)NC(=O)[C@H](CO)NC(=O)[C@@H](NC(=O)[C@H](Cc3ccccc3)NC(=O)[C@@H](NC(=O)CNC(=O)[C@H](CCC(N)=O)NC(=O)C(C)(C)NC(=O)[C@@H](N)Cc3c[nH]cn3)[C@@H](C)O)[C@@H](C)O)C(=O)N[C@@H](CCC(N)=O)C(=O)N[C@@H](C)C(=O)N[C@@H](C)C(=O)N2)[C@@H](C)CC)C(=O)N[C@@H](Cc2c[nH]c3ccccc23)C(=O)N[C@@H](CC(C)C)C(=O)N[C@@H](CC(C)C)C(=O)N[C@@H](CCC(N)=O)C(=O)N[C@H](C(N)=O)[C@@H](C)O)[C@@H](O)[C@H](O)[C@H]1O` [EU-A994], the “body weight changes versus vehicle” value (db/db mice, high-dose (300 nmoles/kg) sc at 0, 7 and 24 hours, days 2 and 3) is on record as “Significant body weight changes versus vehicle”. For the same compound, the “glucose levels versus vehicle” value (db/db mice, high-dose (300 nmoles/kg), at 10 and 24 hr) is reported as “significantly different from vehicle”. Under “db/db mice, high-dose (300 nmoles/kg), day 1”, the “food consumption versus liraglutide” value is “significantly different from liraglutide”. Further, under “dose 300 nmole/kg sc”, the “db/db Mice-Mean Blood Glucose (mg/dL) 0 hr” value turned out to be 554 mg/dL, the “db/db Mice-Mean Blood Glucose (mg/dL) 10 hr” value is 242 mg/dL, the “db/db Mice-Mean Blood Glucose (mg/dL) 24 hr” value was 209 mg/dL and the “db/db Mice-Mean Blood Glucose (mg/dL) 48 hr” value was 385 mg/dL.
On to `CCCCCCCCCCCCO[C@@H]1O[C@H](CO[C@H]2O[C@H](C(=O)NCCCC[C@H](NC(=O)[C@@H](NC(=O)[C@H](Cc3ccccc3)NC(=O)[C@H](CCC(=O)O)NC(=O)[C@@H]3CCCCNC(=O)CC[C@H](NC(=O)[C@H](CC(=O)O)NC(=O)[C@H](CC(C)C)NC(=O)[C@H](Cc4ccc(O)cc4)NC(=O)[C@H](CCCCN)NC(=O)[C@H](CO)NC(=O)[C@H](Cc4ccc(O)cc4)NC(=O)[C@H](CC(=O)O)NC(=O)[C@H](CO)NC(=O)[C@@H](NC(=O)[C@H](Cc4ccccc4)NC(=O)[C@@H](NC(=O)CNC(=O)[C@H](CCC(N)=O)NC(=O)C(C)(C)NC(=O)[C@@H](N)Cc4c[nH]cn4)[C@@H](C)O)[C@@H](C)O)C(=O)N[C@@H](CCC(N)=O)C(=O)N[C@@H](C)C(=O)N[C@@H](C)C(=O)N3)[C@@H](C)CC)C(=O)N[C@@H](Cc3c[nH]c4ccccc34)C(=O)N[C@@H](CC(C)C)C(=O)N[C@@H](CC(C)C)C(=O)N[C@@H](CCC(N)=O)C(=O)N[C@H](C(N)=O)[C@@H](C)O)[C@H](O)[C@H](O)[C@H]2O)[C@@H](O)[C@H](O)[C@H]1O` [EU-A1023], for which, for the setting “dose 50 nmole/kg sc”, the “db/db Mice-Mean Blood Glucose (mg/dL) 0 hr” value stood at 507 mg/dL, the “db/db Mice-Mean Blood Glucose (mg/dL) 10 hr” value came to 310 mg/dL, the “db/db Mice-Mean Blood Glucose (mg/dL) 24 hr” value came to 355 mg/dL and the “db/db Mice-Mean Blood Glucose (mg/dL) 48 hr” value turned out to be 375 mg/dL. For the same compound, for the setting “dose 250 nmole/kg sc”, the “db/db Mice-Mean Blood Glucose (mg/dL) 0 hr” value was 508 mg/dL, the “db/db Mice-Mean Blood Glucose (mg/dL) 10 hr” value was 264 mg/dL, the “db/db Mice-Mean Blood Glucose (mg/dL) 24 hr” value is listed as 194 mg/dL and the “db/db Mice-Mean Blood Glucose (mg/dL) 48 hr” value was found to be 375 mg/dL.
Turning to `CCCCCCCCCCO[C@@H]1O[C@H](C(=O)NCCCC[C@H](NC(=O)[C@@H](NC(=O)[C@H](Cc2ccccc2)NC(=O)[C@H](CCC(=O)O)NC(=O)[C@@H]2CCCCNC(=O)CC[C@H](NC(=O)[C@H](CC(=O)O)NC(=O)[C@H](CC(C)C)NC(=O)[C@H](Cc3ccc(O)cc3)NC(=O)[C@H](CCCCN)NC(=O)[C@H](CO)NC(=O)[C@H](Cc3ccc(O)cc3)NC(=O)[C@H](CC(=O)O)NC(=O)[C@H](CO)NC(=O)[C@@H](NC(=O)[C@H](Cc3ccccc3)NC(=O)[C@@H](NC(=O)CNC(=O)[C@H](CCC(N)=O)NC(=O)C(C)(C)NC(=O)[C@@H](N)Cc3c[nH]cn3)[C@@H](C)O)[C@@H](C)O)C(=O)N[C@@H](CCC(N)=O)C(=O)N[C@@H](C)C(=O)N[C@@H](C)C(=O)N2)[C@@H](C)CC)C(=O)N[C@@H](Cc2c[nH]c3ccccc23)C(=O)N[C@@H](CC(C)C)C(=O)N[C@@H](CC(C)C)C(=O)N[C@@H](CCC(N)=O)C(=O)N[C@H](C(N)=O)[C@@H](C)O)[C@@H](O)[C@H](O)[C@H]1O` [EU-A1167], the “time for which elevated blood glucose level was reduced to the normal range” value (db/db mice) is recorded as “around 72 hr”. Moreover, under “dose 250 nmole/kg sc”, the “db/db Mice-Mean Blood Glucose (mg/dL) 0 hr” value is reported as 379 mg/dL, the “db/db Mice-Mean Blood Glucose (mg/dL) 10 hr” value is 171 mg/dL, the “db/db Mice-Mean Blood Glucose (mg/dL) 24 hr” value is 117 mg/dL and the “db/db Mice-Mean Blood Glucose (mg/dL) 48 hr” value is 113 mg/dL.
As for `CCCCCCCCCCCO[C@@H]1O[C@H](C(=O)NCCCC[C@H](NC(=O)[C@@H](NC(=O)[C@H](Cc2ccccc2)NC(=O)[C@H](CCC(=O)O)NC(=O)[C@@H]2CCCCNC(=O)CC[C@H](NC(=O)[C@H](CC(=O)O)NC(=O)[C@H](CC(C)C)NC(=O)[C@H](Cc3ccc(O)cc3)NC(=O)[C@H](CCCCN)NC(=O)[C@H](CO)NC(=O)[C@H](Cc3ccc(O)cc3)NC(=O)[C@H](CC(=O)O)NC(=O)[C@H](CO)NC(=O)[C@@H](NC(=O)[C@H](Cc3ccccc3)NC(=O)[C@@H](NC(=O)CNC(=O)[C@H](CCC(N)=O)NC(=O)C(C)(C)NC(=O)[C@@H](N)Cc3c[nH]cn3)[C@@H](C)O)[C@@H](C)O)C(=O)N[C@@H](CCC(N)=O)C(=O)N[C@@H](C)C(=O)N[C@@H](C)C(=O)N2)[C@@H](C)CC)C(=O)N[C@@H](Cc2c[nH]c3ccccc23)C(=O)N[C@@H](CC(C)C)C(=O)N[C@@H](CC(C)C)C(=O)N[C@@H](CCC(N)=O)C(=O)N[C@H](C(N)=O)[C@@H](C)O)[C@@H](O)[C@H](O)[C@H]1O` [EU-A1168], the “time for which elevated blood glucose level was reduced to the normal range” value (db/db mice) is on record as “around 72 hr”. Further, where the note is “dose 250 nmole/kg sc”, the “db/db Mice-Mean Blood Glucose (mg/dL) 0 hr” value amounted to 380 mg/dL, the “db/db Mice-Mean Blood Glucose (mg/dL) 10 hr” value is 133 mg/dL, the “db/db Mice-Mean Blood Glucose (mg/dL) 24 hr” value came to 169 mg/dL and the “db/db Mice-Mean Blood Glucose (mg/dL) 48 hr” value was determined as 164 mg/dL.
